Results from US20210386752A1, “Uses of Electron Transport Chain Complex I or Complex II Inhibitors in Treating Cancer, Combination Therapies, and Diagnostic Methods Related Thereto” (Emory University, priority 2020, published 2021).
Where two headings read alike, the source gives them in different places.

Legend:
[1] = tested on: venetoclax-resistant MM lines; experiment: Venetoclax sensitization of resistant MM lines by ETC inhibitor cotreatment, viability by AnnexinV/DAPI staining; type: cell-based
Procedure: Cell viability assessed by AnnexinV/DAPI staining.
Given the unique role of Complex II in directly connecting the TCA cycle to the ETC, the impact of selectively inhibiting either the SDH or SQR activities of Complex II on venetoclax sensitivity was tested. The venetoclax sensitization effects of TTFA (SQR inhibitor) or 3NPA (SDH inhibitor) were tested on eight venetoclax-resistant MM lines (FIG. 3A-3H). 3NPA is a structural analog of succinate, which binds irreversibly with SDH inhibiting FAD reduction and fumarate production while TTFA is a direct Qp site inhibitor. […] The efficacy of the TTFA-venetoclax cotreatment strategy was also tested in a colony-forming unit assay. MM lines (L363 and KMS11) were cultured in an agar matrix with single agents or the combination.
To further inquire whether Complex I inhibition could also sensitize MM cells to venetoclax, a Complex I inhibitor was tested ([…]).

[2] = tested on: bone marrow plasma cells and memory B cells; settings: murine immune system; cited from earlier work
[3] = tested on: non-MM cells contained within the aspirate
Procedure: Bone marrow aspirate samples from 50 MM patients were treated with three doses of venetoclax (0.01, 0.1 and 0.5 μM) or TTFA (100 μM), or the combination for 24 h and cell death was assessed by AnnexinV staining.
The efficacy of IACS-010759 in sensitizing was tested in […] patient samples to venetoclax.

[4] = tested on: CD38+ CD45− gated MM cells from myeloma patient bone marrow aspirates; experiment: Ex vivo venetoclax sensitivity of myeloma patient samples, Annexin V staining; type: cell-based, human; settings: nine patient samples, IACS-010759
Procedure: CD38-PE and CD45-APC-Cy7 were used to gate myeloma cells. n=50 biological independent samples.
Bone marrow aspirate samples from 50 MM patients were treated with three doses of venetoclax (0.01, 0.1 and 0.5 μM) or TTFA (100 μM), or the combination for 24 h and cell death was assessed by AnnexinV staining. […] A venetoclax ICso <0.1 μM is characterized as a sensitive sample.
Bone marrow aspirates or peripheral blood samples from consenting myeloma patients were diluted to 25 mL with PBS and over laid on lymphocyte separation media. Following centrifugation, the collected buffy coat was washed with PBS and resuspended in culture medium. Cells subject to various treatments were stained with anti-CD38-phyocerythrin and anti-CD45-allophycocyanin-Cy7 to identify MM cells. CD138+ cells were purified using MACS CD138+ human microbeads. IC50S of venetoclax alone or in combination with TTFA/IACS-010759 in myeloma samples were calculated using nonlinear regression (curve-fit) analysis under agonist vs. normalized response with variable slope.

MM = experiment: IACS-010759 in combination with anti-myeloma agents, cell death in MM cells; type: cell-based
ATF4, NOXA = experiment: Immunoblot of whole cell lysates for ATF4 and NOXA; type: cell-based; settings: 25 nM IACS-010759, 24 h
MCL-1 = MCL-1 expression in MM cells; type: cell-based; settings: KMS12PE
AML = settings: targeting Complex II; cited from earlier work
L363, KMS11 and KMS21BM = experiment: ATP levels after ETC complex III, IV, V inhibition; type: cell-based; settings: after 24 h, at the doses used
Procedure: Experiments were performed to determine whether inhibition of Complex III, IV and V could also sensitize resistant MINI to venetoclax.

MM patients = settings: cited from earlier work
MM cell lines = experiment: Cell death of MM cell lines with single-agent venetoclax, AnnexinV/DAPI flow cytometric staining; type: cell-based; settings: 0.5 μM venetoclax, 24 h, panel of MM lines
Procedure: Percent live normalized to vehicle control, with cell lines grouped by sensitivity. n=3 independent experiments.
Differential venetoclax sensitivity was assessed in a panel of MM lines. […] The pattern of increased sensitivity of these cell lines was selective for venetoclax and not detected with other standard myeloma therapeutics i.e. bortezomib and melphalan or sensitivity to the MCL-1 inhibitor […] as reported for the KMS12BM, KMS12PE, KMS11, MM.1 S, JJN3, RPMI-8226 and L363 lines.

[5] = L363, KMS11, KMS21BM, doses reducing ATP by about 50% after 24 h

O=C(O)CC[N+](=O)[O-] [3NPA]
sensitivity to venetoclax on cotreatment ([1]; eight venetoclax-resistant MM lines, 24 h): less effective compared to TTFA

CN(C)CC[C@H](CSc1ccccc1)Nc1ccc(S(=O)(=O)NC(=O)c2ccc(N3CCN(Cc4ccccc4-c4ccc(Cl)cc4)CC3)cc2)cc1[N+](=O)[O-] [ABT-737]
effect on plasma cells and B cells [2]: inhibits the establishment of newly arising bone marrow plasma cells and memory B cells with no effect on pre-existing plasma cells, or germinal center B cells

Cc1nc(-c2nc(-c3ccc(OC(F)(F)F)cc3)no2)nn1Cc1cccc(N2CCC(S(C)(=O)=O)CC2)c1 [IACS-010759, 5-(5-methyl-1-(3-(4-(methylsulfonyl)piperidin-1-yl)benzyl)-1H-1,2,4-triazol-3-yl)-3-(4-(trifluoromethoxy)phenyl)-1,2,4-oxadiazole]
IC50 of venetoclax on cotreatment ([1]; 25 nM IACS-010759, tested cell lines): significantly reduced the IC50 of venetoclax
sensitization to 0.5 μM venetoclax ([1]; KMS11, L363, KMS21BM, increasing doses of IACS-010759, 24 h): sensitized cells to 0.5 μM venetoclax
sensitization to venetoclax ([1]; KMS21BM, TTFA at 100 μM): enough to sensitize KMS21BM to venetoclax
viability of non-MM cells [3]: minimal impact on the viability of non-MM cells
samples with >50% reduction in the IC50 of venetoclax [4]: five of the samples
samples with increased venetoclax sensitivity [4]: Eight out of nine samples showed increased sensitivity
effect on carfilzomib (CFZ) response (MM; 24 hr dose response): antagonizes MM to proteasome inhibitor carfilzomib
effect on bortezomib induced cell death (MM; L363, 24 hr treatment): antagonizes MM to proteasome inhibitor bortezomib induced cell death
effect on melphalan induced cell death (MM; L363, 24 hr treatment): sensitizes myeloma to melphalan induced cell death
effect on efficacy of dexamethasone + venetoclax (MM; MM): increases efficacy of dexamethasone (Dex) +Ven
effect on sensitivity to dexamethasone (MM; MM): increases sensitivity of MM to Dex
sensitization to venetoclax (ABT-199) (MM; t(11;14) MM, KMS12PE, 24 hr Ven treatment): sensitizes t(11;14) MM to venetoclax
protein expression of ATF4, NOXA (ATF4, NOXA): induction of ATF4 and NOXA
MCL-1 expression (MCL-1): reduces MCL-1

Nc1ncn([C@@H]2O[C@H](CO)[C@@H](O)[C@H]2O)c(=O)n1 [azacitidine]
venetoclax sensitivity (AML): induced venetoclax sensitivity

CC[C@H]1/C=C/C=C/C[C@@H](C)[C@H](O)[C@@](C)(O)C(=O)[C@@H](C)[C@H](O)[C@@H](C)C(=O)[C@@H](C)[C@H](O)[C@@H](C)/C=C/C(=O)O[C@@H]2[C@H](C)[C@H](CC1)O[C@]1(CC[C@H](C)[C@H](C[C@@H](C)O)O1)[C@H]2C [oligomycin]
reduction of ATP levels (L363, KMS11 and KMS21BM): about 50%
sensitization to venetoclax [1, 5]: sensitized L363, KMS11 and KMS21BM to venetoclax

C/C=C(\C)[C@H](O)[C@H](C)/C=C(C)/C=C/C/C(C)=C/Cc1nc(OC)c(OC)c(O)c1C [piericidin]
sensitization to venetoclax ([1]; resistant MM cell lines, Complex I inhibitor): also sensitized resistant MM cell lines to venetoclax

[N-]=[N+]=[N-] [sodium azide]
reduction of ATP levels (L363, KMS11 and KMS21BM): about 50%

CC1(C)CCC(CN2CCN(c3ccc(C(=O)NS(=O)(=O)c4ccc(NCC5CCOCC5)c([N+](=O)[O-])c4)c(Oc4cnc5[nH]ccc5c4)c3)CC2)=C(c2ccc(Cl)cc2)C1 [venetoclax, 2-((1H-pyrrolo[2,3-b]pyridin-5-yl)oxy)-4-(4-((4′-chloro-5,5-dimethyl-3,4,5,6-tetrahydro-[1,1′-biphenyl]-2-yl)methyl)piperazin-1-yl)-N-((3-nitro-4-(((tetrahydro-2H-pyran-4-yl)methyl)amino)phenyl)sulfonyl)benzamide]
fraction of MM patients responding to single agent (MM patients; all MM patients): approximately 7%
fraction of patients venetoclax sensitive (MM patients; non-t(11;14) patients): < 6%
fraction of patients venetoclax sensitive (MM patients; t(11;14) patients): ~40%
cytotoxicity (cell death) (MM cell lines): significant cytotoxicity primarily in t(11;14) lines

antimycin
reduction of ATP levels (L363, KMS11 and KMS21BM): about 50%
sensitization to venetoclax [1, 5]: sensitized L363, KMS11 and KMS21BM to venetoclax
